From US9132200B2, “Oligomer-calcium channel blocker conjugates” (NEKTAR THERAPEUTICS, priority 2007, dated 2015)
Like-named read-outs stand apart in the source and are kept apart here.

Biological target: calcium channel (Rattus norvegicus, UniProt P22002)
Test: Calcium channel binding assay similar to Example 3, 3[H]-diltiazem as competing radioligand
Procedure: […] […] The reactions were carried out in 50 mM TRIS-HCl (pH 7.7) at 25° C. for 60 minutes. The reaction was terminated by rapid vacuum filtration onto glass fiber filters. […] Molecular Pharmacology 25, 235-241 (1984)).

[1] = Binding Assay No. 2 (Table 2), 3[H]-diltiazem radioligand

calcium channel, sequence (P22002 whole entry): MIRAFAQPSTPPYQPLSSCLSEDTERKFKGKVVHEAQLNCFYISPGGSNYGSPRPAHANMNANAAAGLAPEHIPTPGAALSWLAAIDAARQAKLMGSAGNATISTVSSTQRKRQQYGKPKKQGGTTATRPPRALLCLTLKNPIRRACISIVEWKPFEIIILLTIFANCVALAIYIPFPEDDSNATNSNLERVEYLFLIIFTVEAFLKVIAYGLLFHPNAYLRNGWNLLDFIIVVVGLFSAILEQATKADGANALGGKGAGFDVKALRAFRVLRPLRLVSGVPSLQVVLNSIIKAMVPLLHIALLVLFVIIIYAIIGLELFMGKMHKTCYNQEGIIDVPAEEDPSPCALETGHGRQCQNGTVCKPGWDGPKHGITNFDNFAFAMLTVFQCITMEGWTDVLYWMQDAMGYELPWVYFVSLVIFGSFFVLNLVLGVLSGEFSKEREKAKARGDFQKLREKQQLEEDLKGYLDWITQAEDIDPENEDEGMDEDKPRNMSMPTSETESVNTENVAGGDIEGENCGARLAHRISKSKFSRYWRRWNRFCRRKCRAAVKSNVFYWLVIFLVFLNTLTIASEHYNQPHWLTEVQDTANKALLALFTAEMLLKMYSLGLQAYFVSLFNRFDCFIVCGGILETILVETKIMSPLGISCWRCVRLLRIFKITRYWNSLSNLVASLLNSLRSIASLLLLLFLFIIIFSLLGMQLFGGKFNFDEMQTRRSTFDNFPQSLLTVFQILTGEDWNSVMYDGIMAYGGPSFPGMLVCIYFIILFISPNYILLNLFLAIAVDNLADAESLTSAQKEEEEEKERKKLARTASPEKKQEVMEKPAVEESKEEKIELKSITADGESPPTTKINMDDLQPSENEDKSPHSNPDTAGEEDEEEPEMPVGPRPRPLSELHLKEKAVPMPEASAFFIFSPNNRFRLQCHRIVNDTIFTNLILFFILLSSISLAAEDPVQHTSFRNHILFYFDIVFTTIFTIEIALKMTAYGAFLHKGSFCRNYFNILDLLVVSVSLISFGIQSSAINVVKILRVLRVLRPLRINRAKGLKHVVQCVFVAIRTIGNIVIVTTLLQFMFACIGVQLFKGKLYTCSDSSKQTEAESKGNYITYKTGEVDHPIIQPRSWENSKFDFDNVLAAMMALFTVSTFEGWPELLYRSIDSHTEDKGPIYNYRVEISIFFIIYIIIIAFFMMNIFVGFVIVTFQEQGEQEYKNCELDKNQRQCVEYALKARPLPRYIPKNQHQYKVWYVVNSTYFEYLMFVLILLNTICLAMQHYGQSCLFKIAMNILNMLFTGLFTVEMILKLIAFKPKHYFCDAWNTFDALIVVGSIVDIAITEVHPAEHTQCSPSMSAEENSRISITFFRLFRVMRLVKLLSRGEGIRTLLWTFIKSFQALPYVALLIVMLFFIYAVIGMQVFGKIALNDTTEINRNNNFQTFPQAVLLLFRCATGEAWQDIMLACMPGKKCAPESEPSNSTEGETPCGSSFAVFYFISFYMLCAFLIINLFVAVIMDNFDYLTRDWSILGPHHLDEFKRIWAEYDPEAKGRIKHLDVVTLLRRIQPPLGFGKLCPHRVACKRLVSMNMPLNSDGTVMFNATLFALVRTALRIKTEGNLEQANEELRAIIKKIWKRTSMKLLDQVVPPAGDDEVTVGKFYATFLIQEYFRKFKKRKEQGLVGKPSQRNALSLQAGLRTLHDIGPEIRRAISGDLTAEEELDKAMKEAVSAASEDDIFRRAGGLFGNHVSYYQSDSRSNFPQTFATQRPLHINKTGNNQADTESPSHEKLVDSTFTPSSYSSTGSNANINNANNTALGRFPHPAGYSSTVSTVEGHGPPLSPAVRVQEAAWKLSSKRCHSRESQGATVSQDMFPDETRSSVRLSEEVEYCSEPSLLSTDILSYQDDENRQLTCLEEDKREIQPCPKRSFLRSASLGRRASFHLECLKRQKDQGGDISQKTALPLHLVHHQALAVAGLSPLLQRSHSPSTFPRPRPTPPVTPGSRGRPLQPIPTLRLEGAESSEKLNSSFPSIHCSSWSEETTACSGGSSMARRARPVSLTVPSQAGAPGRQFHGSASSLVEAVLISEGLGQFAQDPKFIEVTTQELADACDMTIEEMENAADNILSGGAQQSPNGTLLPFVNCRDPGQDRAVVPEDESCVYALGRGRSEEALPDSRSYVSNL

Row | SMILES | IC50 [1] [nM] | IC50 [nM]
1 | COCCOCCOCCOc1ccc(CCN(C)CCCC(C#N)(c2ccc(OC)c(OC)c2)C(C)C)cc1OC (stereo not shown) [mPEG3-O-Verapamil, O-mPEG3-verapamil] | 541 | 
2 | COCCOCCOCCOCCOCCOc1ccc(CCN(C)CCCC(C#N)(c2ccc(OC)c(OC)c2)C(C)C)cc1OC (stereo not shown) [mPEG5-O-Verapamil, O-mPEG5-verapamil] | 852 | 
3 | COCCOCCOCCOCCOCCOCCOc1ccc(CCN(C)CCCC(C#N)(c2ccc(OC)c(OC)c2)C(C)C)cc1OC (stereo not shown) [mPEG6-O-Verapamil, O-mPEG6-verapamil] |  | 349
4 | COCCOCCOCCOCCOCCOCCOCCOc1ccc(CCN(C)CCCC(C#N)(c2ccc(OC)c(OC)c2)C(C)C)cc1OC (stereo not shown) [mPEG7-O-Verapamil, O-mPEG7-verapamil] | 1130 | 
